From patent publication US12006310B2, “Preparation and application of triterpenoids with effect of improving glucose and lipid metabolism disorders” (SERICULTURAL&AGRI-FOOD RESEARCH INSTITUTE GUANGDONG ACADEMY …, priority 2022, dated 2024)
Read-outs that look alike come from different tables or passages of the source.

How the values were obtained:
[1] = tested on: primary isolated hepatic parenchymal cells of SD rats; assay: Hepatic gluconeogenesis inhibitory activity in primary hepatocytes; type: cell-based; details: for inhibition at 20 µM / inhibition at 40 µM: Rattus norvegicus, Hepatocyte, read-out: hepatic gluconeogenesis inhibitory activity
Text: In this embodiment, primary isolated hepatic parenchymal cells of SD rats (purchased from Experimental Animal Center of Southern Medical University) were used as a model, and berberine, a traditional Chinese medicine as a hypoglycemic agent, was used as a positive control to evaluate an impact of the novel triterpenoid compound (23R, 25E)-3β-hydroxy-23-methoxycucurbita-6,25-dien-5β,19-olide3-O-β-d-allopyranoside and Momordicoside G, and compositions thereof in different proportions (novel triterpenoid compound:Momordicoside G=1:0.5, 1:1.0, or 1:1.5) on hepatic gluconeogenesis, thereby further elaborating beneficial effects of the present invention. The process was as follows:
In-situ perfusion digestion was used to digest SD rat liver with type IV collagenase. After being dispersed, hepatocytes were transferred to a 49% Percoll separation solution for centrifugation. After supernatant was discarded, the cells adhered for 6 hours to a 24-well plate coated with 0.2% gelatin. After starvation in a serum-free low-sugar medium for 8 hours, the supernatant was discarded, the cells were washed with PBS buffer, and then a reaction solution (sugar-free DMEM containing 2 mM sodium pyruvate and 20 mM sodium lactate) was added, waiting for a sample test.
Triterpenoid compounds (a novel triterpenoid compound and Momordicoside G) were dissolved in dimethyl sulfoxide (DMSO) to prepare […] mother liquor. Through dilution with the foregoing reaction solution, the final concentrations of the triterpenoid compounds finally added into cell culture wells were 20 μM and 40 μM respectively, and the final concentration of the DMSO was 0.4%. A negative control was a reaction solution containing the DMSO with the same concentration (0.4%). Berberine, a positive control, was prepared into 40 mM with ultrapure water, the final concentrations for the test were 20 μM and 40 μM, and the final concentration of the DMSO was kept at 0.4%. To-be-tested samples were added into the cell reaction solution, and continued to be cultured for 6 hours. Then the glucose concentration in the culture medium (that is, the reaction solution) of each well was measured, and then the medium was discarded. After being washed with PBS, the cells were lysed with 250 mM NaOH, and the protein concentration was measured by using a Coomassie brilliant blue method. By reading an absorbance value, the concentration of glucose in the medium in all sample wells and the concentration of protein after lysis were determined by using a standard curve method, and a ratio of the two was used to measure an average gluconeogenesis level of the cells in the wells.

3T3-L1 preadipocytes = assay: Inhibitory activity against 3T3-L1 preadipocyte-induced differentiation (oil red O staining); type: cell-based, mouse; details: for content of lipid droplets after oil red O staining: 20 μM and 40 μM, compared with differentiation solution group
Description: A mouse embryonic fibroblast 3T3-L1 cell line (preadipocytes) was purchased from Shanghai Cell Bank, Chinese Academy of Sciences.
In the test, samples fell into an undifferentiation control group (cultured with a normal DMEM), a negative control group (cultured with a DMEM containing a differentiation solution), and a sample intervention group [cultured with a DMEM containing a differentiation solution+a or 40 μM triterpenoid compound or triterpenoid composition (novel triterpenoid compound:Momordicoside G=0.5, 1.0, or 1.5)]. Differentiation was induced by using a methylisobutylxanthine, dexamethasone and insulin, (MDI) induction medium (the induction medium is a differentiation solution, and the differentiation solution includes a high-sugar DMEM containing 0.5 mmol/L IBMX, 1 μmol/L DEX, 10 mg/L insulin, and 10% FCS). 3T3-L1 preadipocytes were cultured in an incubator with 5% CO2 and 37° C. saturated humidity, and cultured in the DMEM containing 10% FCS until the density of monolayer adherent cells was greater than or equal to 90%. After being washed with Hanks' balanced salt solution (HBSS), the cells were digested by trypsin, and then inoculated into a 6-well culture plate (1×10^5 cells/well). After cell contact inhibition, a fresh DMEM containing 10% FCS was used for fusion culture for 2 days. On the 3rd day (that is, the 0th day of differentiation), the cells were cultured in the differentiation solution for culture, and 0.1% DMSO and a novel triterpenoid compound (23R, 25E)-3β-hydroxy-23-methoxycucurbita-6,25-dien-5β,19-olide3-O-β-d-allopyranoside with concentration gradients of 20 μM and 40 μM or known compound Momordicoside G or a composition of the two were added in the sample intervention group. 0.1% DMSO was added in the negative control group. On the 2nd day of differentiation, the medium was replaced with a DMEM containing only 10 mg/L insulin and 10% FCS, the samples of each group continued to be cultured, and the medium was replaced once every 2 days until the experiment ended on the 8th day of differentiation. After the experiment ended, the medium was discarded, the cells were washed twice with cold PBS, and the cells were fixed with 4% paraformaldehyde solution for 60 min. After paraformaldehyde was removed and PBS was added for washing, the fixed cells were stained with an oil red O dye kit (Solarbio, G1262-4) for 1 hour, and the cells were washed with 60% isopropanol for 3 times to remove the uncolored oil red O dye and were photographed for observation. After the observation, the cells were lysed with lysate (containing 4% NP-40), and an absorbance value at 490 nm was measured, and calculated by using an OD value.

[2] = 20 μM, 6 hours culture, primary hepatocytes
[3] = 40 μM, 6 hours culture, primary hepatocytes

Momordicoside G
hepatic gluconeogenesis inhibitory activity [1, 2]: 20.75% | hepatic gluconeogenesis inhibitory activity [1, 3]: 34.42% | content of lipid droplets after oil red O staining (3T3-L1 preadipocytes): decreased significantly | inhibition rate on differentiation of 3T3-L1 preadipocytes (3T3-L1 preadipocytes; 20 μM, 8th day of differentiation, oil red O, absorbance 490 nm, vs differentiation solution group): 23.77% | inhibition rate on differentiation of 3T3-L1 preadipocytes (3T3-L1 preadipocytes; 40 μM, 8th day of differentiation, oil red O, absorbance 490 nm, vs differentiation solution group): 51.27%

COC(C=C(C)C)C[C@@H](C)[C@H]1CC[C@@]2(C)C3C=CC45OC(=O)[C@]3(CC[C@]12C)C4CC[C@H](O[C@@H]1O[C@H](CO)[C@H](O)[C@H](O)[C@H]1O)C5(C)C (stereo partly drawn) [novel triterpenoid compound, (23R, 25E)-3β-hydroxy-23-methoxycucurbita-6,25-dien-5β,19-olide3-O-β-d-allopyranoside]
inhibition at 20 µM ([1]; 6 h): 32.1% | inhibition at 40 µM ([1]; 6 h): 28.9% | content of lipid droplets after oil red O staining (3T3-L1 preadipocytes): decreased significantly | inhibition at 20 µM (3T3-L1 preadipocytes; Mus musculus, 3T3-L1, 20 μM, 8th day of differentiation, oil red O, absorbance 490 nm, vs differentiation solution group, read-out: inhibition rate on differentiation of 3T3-L1 preadipocytes): 35.5% | inhibition at 40 µM (3T3-L1 preadipocytes; Mus musculus, 3T3-L1, 40 μM, 8th day of differentiation, oil red O, absorbance 490 nm, vs differentiation solution group, read-out: inhibition rate on differentiation of 3T3-L1 preadipocytes): 56.4%

COc1ccc2cc3[n+](cc2c1OC)CCc1cc2c(cc1-3)OCO2 [berberine]
inhibition at 20 µM [1, 2]: 15.6% | inhibition at 40 µM [1, 3]: 35.2%
